Results taken from patent US7230023B2, “Water-soluble triazole fungicide” (Sankyo Company, Limited, priority 2001, dated 2007).
Converted amounts (≈) assume the structure as drawn.

Key:
[1] = system: human liver microsome preparation; test: Test to confirm formation of active substance: incubation with human liver microsome preparation, HPLC; assay type: in vitro ADME; details: human liver microsome preparation 0.5 mg protein/ml, initial concentration 1 μM, 37° C.
Procedure: The test compound was dissolved in a human liver microsome preparation (0.5 mg protein/ml, GENTEST Corporation) at an intial concentration of 1 μM and the mixture was incubated at 37° C.
A small aliquot of the sample was collected at certain time intervals, and the rate of persistence of the original compound and the rate of formation of compound A, the active substance with the chemical structure shown below, were determined by HPLC.
The results of incubating the compound of Example 5 (the disodium salt of example number 5-16) with the human liver microsome preparation are shown in FIG. 1.

[2] = system: Candida albicans ATCC 64550; test: Antifungal activity against Candida, MIC by broth microdilution; assay type: cell-based; details: ATCC64550, RPMI1640 pH 7.0, 35° C., 24-72 hours, at least 80% growth inhibition, read-out: MIC values C.a. (1)
Procedure: (§1) The antifungal activities of compound A were assessed according to the minimum inhibitory concentrations (MICs) which were measured by the methods described below:
(§2) Determination of antifungal activity against Candida: The MICs were determined by the broth microdilution method. Test compound was dissolved in dimethyl sulfoxide (DMSO). Serial two-fold dilution of the test compound was performed with DMSO, and then the final dilution was performed with RPMI1640 medium (product of Dainippon Pharmaceutical Co., Ltd.) which was buffered to pH 7.0 with 0.165M 3-(morpholino)propanesulfonic acid (MOPS). […] Colonies of the test fungi were suspended in physiological saline followed by adjustment to 5.0×10^2 to 2.5×10^3 cells/ml with RPMI1640 medium which was buffered to pH 7.0 with 0.165M MOPS. 100 μl of the fungal suspension and 100 μl of each diluted test compound solution were mixed in each well of microtitre plates, before incubating at 35° C. for 24-72 hours. […] The MICs were defined as the lowest compound concentrations causing at least 80% growth inhibition when compared with the control.

[3] = system: Candida albicans TIMM 3164; test: as above; assay type: cell-based; details: TIMM3164, RPMI1640 pH 7.0, 35° C., 24-72 hours, at least 80% growth inhibition, read-out: MIC values C.a. (2)
Procedure: as §1, §2

[4] = system: Candida albicans TIMM 3165; test: as above; assay type: cell-based; details: TIMM3165, RPMI1640 pH 7.0, 35° C., 24-72 hours, at least 80% growth inhibition, read-out: MIC values C.a. (3)
Procedure: as §1, §2

[5] = system: Cryptococcus neoformans TIMM 0362; test: Antifungal activity against Cryptococcus neoformans, MIC by broth microdilution; assay type: cell-based; details: TIMM0362, yeast nitrogen base medium pH 7.0, 35° C., 48-72 hours, at least 50% growth inhibition, absorbance at 485 nm, read-out: MIC values C.n.
Procedure: as §1
Determination of antifungal activity against Cryptococcus neoformans: MICs were determined by the broth microdilution method. Test compound was dissolved in DMSO. Serial two-fold dilution of the test compound was performed with DMSO, and the final dilution was performed with yeast nitrogen base medium (product of Difco Laboratories) buffered to pH 7.0 with 0.165M MOPS. […] Colonies of the test fungi were suspended in physiological saline followed by adjustment to 5.0×10^3 to 2.5×10^4 cells/ml with yeast nitrogen base medium buffered to pH 7.0 with 0.165M MOPS. 100 μl of the fungal suspension and 100 μl of each diluted test compound solution were mixed in each well of microtitre plates, before incubating at 35° C. for 48-72 hours. […] The MICs were defined as the lowest compound concentrations causing at least 50% growth inhibition when compared with the control as measured by light absorbance at 485 nm.

[6] = system: Aspergillus fumigatus SANK 10569; test: Antifungal activity against Aspergillus, MIC by broth microdilution; assay type: cell-based; details: SANK10569, RPMI1640 pH 7.0, 30° C., 24-72 hours, at least 80% growth inhibition, read-out: MIC values A.f.
Procedure: as §1
as §2, with “Aspergillus:” for “Candida: The”, “DMSO.” for “dimethyl sulfoxide (DMSO).”, “MOPS.” for “3-(morpholino)propanesulfonic acid (MOPS).”, “about 1.0×10^4” for “5.0×10^2 to 2.5×10^3”, “30°” for “35°”

| rate of formation of compound A (active substance) ([1]; after incubation for 30 min) | MIC [2] [µg/mL] | MIC [3] [µg/mL] | MIC [4] [µg/mL] | MIC [5] [µg/mL] | MIC [6] [µg/mL] | Structure (SMILES) | rate of persistence of the original compound [1] |
| --- | --- | --- | --- | --- | --- | --- | --- |
| completely converted to compound A | – | – | – | – | – | C[C@@H](S[C@H]1CO[C@H](/C=C/C=C/c2ccc(C#N)cc2F)OC1)[C@@](Cn1cncn1)(OC(=O)c1cc(C#N)ccc1COP(=O)([O-])[O-])c1ccc(F)cc1F.[Na+].[Na+] [Example 5, Disodium 4-cyano-2-[[(1R,2R)-2-[[trans-2-[(1E,3E)-4-(4-cyano-2-fluorophenyl)-1,3-butadienyl]-1,3-dioxan-5-yl]thio]-1-(2,4-difluorophenyl)-1-[(1H-1,2,4-triazol-1-yl)methyl]propoxy]carbonyl]benzyl phosphate] | diminished immediately after the incubation started |
| – | 0.25 (≈ 0.461 µM) | ≤ 0.008 | 0.063 (≈ 0.116 µM) | ≤ 0.008 | 0.031 (≈ 0.0571 µM) | C[C@@H](S[C@H]1CO[C@H](/C=C/C=C/c2ccc(C#N)cc2F)OC1)[C@](O)(Cn1cncn1)c1ccc(F)cc1F [Compound A] | – |
